In experiment [1] the target is T1, Brd4 foci at the Pou5f1 locus (Mus musculus, UniProt Q9ESU6).
T1 construct: integrating a SNAP-tag at the N-terminus of the endogenous Brd4; endogenous in cells; host or cells: mouse ESCs OMG-1, homozygous SNAP-Brd4 knock-in clone 9 (printed as 'OMG SNAP-Cdk9 clone 9')
Briefly: Brd4 cluster signal at Pou5f1 upon inhibition (live-cell confocal/STED scans). The class given is cell-based. The settings on record: for Brd4 signal at Pou5f1 upon inhibition: 1 μM JQ1 (within 1 min) or 10 μM Flavopiridol. As for the experimental part: For real-time confocal and STED imaging, example implementations may program the wave generator to scan 2 μm×2 μm or 1 μm×1 μm xy areas in 0.8 sec or 0.2 sec respectively. 3D scanning was performed (via, e.g., detection system 150) by acquiring 5 xy scans while moving the stage by 0.5 μm in z between scans. TTL pulses corresponding to single-photon events from the APDs, together with the trigger pulses from the wave generator were detected using a field-programmable gate array (FPGA) data acquisition system (National Instruments, PCIe-7852R).
Before imaging, cells were seeded onto 8-chamber coverglass (LabTek, 155411) coated with 5 μg/ml laminin (BioLamina LN511), in −2i media (OMG) or +2i media (NMG) and appropriate drugs. For SiR staining, cells were labeled with media containing 0.3 μM SiR-BG for 10 mins, at 37° C., followed by three washes with new media.
To generate OMG or NMG SNAP-Brd4 targeted cells, OMG-1 or NMG mESCs (1×106) were transfected with 10 μg SNAP-Brd4 donor vector and 0.6 μg espCas9-gRNA-Brd4 vector. 10 days after transfection, the cells were trypsinized, labeled with SiR-BG and subjected to FACS, generating a first-round SiR-positive pool. This pool was then expanded, stained with SiR-BG and subjected to second FACS round and individual clones were picked and expanded.

Experiment [2] concerns Pol II (SiR-Rpb1) at the CMV mini-gene transcription site. Briefly: SiR-Rpb1 (Pol II) dynamics at the CMV mini-gene after inhibitor addition (target-locking). The class given is cell-based, human. The settings on record: for SiR-Rpb1 exponential decay time (ii) individual target-locked transcription site traces: 10 μM flavopiridol or 10 μM triptolide, mean±S.D.; for SiR-Rpb1 exponential decay time (i) fit parameters of total signal from different transcription sites: after adding 10 μM flavopiridol or 10 μM triptolide, target-locking. On the procedure:
To visualize Pol II, example implementations may express a SNAP-tagged Rpb1 Pol II subunit (SNAP-Rpb1). […] Importantly, the brightness and gradual SiR-Rpb1 photobleaching within these foci (see below) indicates multiple Pol II molecules accumulating at the mini-gene. Previously, it was unclear to what extent transcription is carried out by individual, solitary Pol II molecules, or whether it involves multiple Pol II molecules. When Pol II clustering occurs, as typically little information on genomic position and promoter activity is simultaneously available, it has been hard to establish whether and how this phenomenon relates to transcription. Our observations reveal that focal Pol II accumulation and transcription activity from a specific promoter at a specific genomic locus are spatially and temporally linked.
Regarding target-locking probes nanometer Pol II organization at the transcription site, motion blur and bleaching during scanning distorts the 3D images, limits the observation times and makes quantifying and tracking Pol II at the transcription site, with single-molecule sensitivity and higher spatio-temporal resolution, extremely difficult (FIGS. 11D, 11E). To eliminate scanning, example implementations may develop a target-locking system that obtains single-shot spatial information (FIG. 10A) and actively stabilizes the transcription site at the (common) excitation maximum/STED zero. With feedback loop speeds up to 30 fps, tdPCP-EGFP is locked within ˜30 nm root-mean-square (r.m.s.) from the desired set-point (FIGS. 4E, 4F, 11F). Target-locking at the excitation maximum provides the same total photon counts as scanning, but at orders-of-magnitude lower power, improving photostability. […]
Pol II closely follows the fate of nascent transcripts: SiR-Rpb1 accumulation gradually decreases after inhibitor addition (FIGS. 3B, 3C and 13H decay times 160-240 sec). […] The good agreement with decay rates measured optically further supports the notion that the accumulated SiR-Rpb1 signal reflects multiple elongating/terminating Pol IIs.
For active feedback control, example implementations may adopt a custom LabVIEW program, optimized for fast CCD acquisition (via, e.g., detection system 150), real-time image analysis and active microscope stabilization using nanopositioning equipment (e.g., platform 190). The images obtained from the Ixon3 897 detector (e.g., detection system 150) were analyzed on the fly by non-linear least-squares fitting of a 21×21 pixel ROI to a 2D Gaussian peak function implemented in LabVIEW. […] The coordinates returned by the 2D Gaussian peak fit were passed onto a PID controller that calculated the desired position correction that was commanded to the nanopositioning stage controller. […]

On to `Cc1sc2c(c1C)C(c1ccc(Cl)cc1)=N[C@@H](CC(=O)OC(C)(C)C)c1nnc(C)n1-2` [JQ1], for which the “Brd4 signal at Pou5f1 upon inhibition” value in experiment [1] is on record as “drop sharply”. Besides, the “Hill equation n, relative Brd4 signal at Pou5f1 vs. [JQ1]” value in experiment [1] (Pou5f1) is reported as 1.3±0.3.
With `CN1CC[C@H](c2c(O)cc(O)c3c(=O)cc(-c4ccccc4Cl)oc23)[C@H](O)C1` [flavopiridol], in experiment [2], the “SiR-Rpb1 exponential decay time (ii) individual target-locked transcription site traces” value came to 162 ± 71 s and the “SiR-Rpb1 exponential decay time (i) fit parameters of total signal from different transcription sites” value came to 238 ± 49 s. For the same molecule, the “Brd4 signal at Pou5f1 upon inhibition” value in experiment [1] was “not lost”.
For `CC(C)[C@]12O[C@H]1[C@@H]1O[C@]13[C@]1(O[C@H]1C[C@H]1C4=C(CC[C@@]13C)C(=O)OC4)[C@@H]2O` [triptolide], in experiment [2], the “SiR-Rpb1 exponential decay time (ii) individual target-locked transcription site traces” value is 242 ± 148 s and the “SiR-Rpb1 exponential decay time (i) fit parameters of total signal from different transcription sites” value stood at 239 ± 24 s.

The values are drawn from US12031897B2, “Target-locking single-molecule nanoscopy” (Memorial Sloan Kettering Cancer Center, priority 2019, dated 2024).
